From US12358921B2, “Antiviral heterocyclic compounds” (priority 2022, dated 2025) come the findings set out here.

Experiment [1] concerns hMPV A2 TN/94-49. Description: HMPV antiviral assay Method 1 (LLC-MK2 cells, ATP-Lite). It is filed as cell-based. The following applies: hMPV A2 TN/94-49, LLC-MK2 cells. As to the method:
In vitro HMPV antiviral activity was evaluated using the clinical isolate A2 strain TN 94-49 (obtained from Dr. John Williams, Vanderbilt University, Tennessee) and […] cells (ATCC #CCL-7), an immortalized kidney epithelial cell line from Macaca mulatta. Compounds were resuspended in dimethyl sulfoxide (DMSO) at 10 mM, serially diluted and added to a 384-well source plate. Subsequently, the compounds were diluted and transferred onto 384-well assay plates using the Echo-650 automated liquid handling system (Beckman Coulter, Indiana). The test compounds were assessed in duplicate at a top concentration of 2 μM followed by 2.5-fold serial dilutions to give a total of 10 concentration points. DMSO control wells were also included on the assay plates and were either infected or not, acting as positive and negative controls. A2 TN 94-49 virus infections were performed in-suspension with LLC-MK2 cells. The cells were washed twice with PBS and removed from the cell-culture flask with 0.25% trypsin-EDTA (Thermo Fisher Scientific, MA). The trypsin-EDTA was inactivated by resuspending in 2% fetal bovine serum (FBS) and OptiMEM (ThermoFisher Scientific, MA) containing 1% penicillin-streptomycin. Cells were pelleted by centrifuging for 5 minutes at 800 rpm, the supernatant was removed, and cells were re-suspended and washed in PBS plus 100 μg/mL CaCl2). This step was performed twice. Cells were then re-suspended in serum-free (SF)-OptiMEM containing 4 μg/mL TPCK-Trypsin (Sigma Aldrich, MO), 1% penicillin-streptomycin (ThermoFisher Scientific, MA) and 100 μg/mL CaCl2). Cells were counted and seeded at a density of 5,000 cells/well, 12.5 μL/well. Virus infections were done at a multiplicity of infection (MOI) of 0.005 with 12.5 μL added per well. Virus infections were performed in infection media which contained SF-OptiMEM, 100 μg/mL CaCl2) and 1% penicillin-streptomycin. HMPV viral stocks are suspended in infection media+5% glycerol, thus an equal volume of infection media+5% glycerol was added to uninfected wells to equalize the final % glycerol across all wells of the assay plate. The final concentration of TPCK-trypsin was 2 μg/mL. The assay plates were incubated at 37° C., 5% CO2 for 7 days. After 7 days incubation, 12.5 μL of ATP-Lite (PerkinElmer, MA) was added to each well and the raw luminescence values were determined using the Envision 2104 (Perkin Elmer, MA). The average of the raw luminescence values for the cells and virus only positive control wells was subtracted from all conditions tested and the percent cell health was determined by dividing these values by the average of the cells only negative control wells. EC50 values were then calculated by non-linear regression using a four-parameter curve logistic equation. The curve fit model employed was XLFit Dose Response One Site Model 200: y=(A+(B/(1+((x/C)^D)))), where A is the minimum y value, B is the maximum y value, C is the log EC50value, and D is the slope factor. Method 2: In Vitro HMPV Antiviral Activity was Evaluated Using the Clinical Isolate A2 Strain TN 94-49

Experiment [2] deals with HUMAN RSV-A (“LONG” STRAIN). Description: RSV-A assay (CPE, ATPlite) in Hep-2 cells. It is filed as cell-based. The following applies: human respiratory syncytial virus, 120 h, MOI 0.1, 5-day incubation. Summed up:
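Protection from RSV cytopathic effect read by ATP luminescence (ATPlite) after 5-day culture. Genotype A "Long" virus added at MOI 0.1 to Hep-2 monolayers at 8,000 cells/well, pre-dosed with duplicate 2-fold compound dilutions; controls include infected untreated and uninfected wells. EC50 values binned into ranges.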
(Cellular ATP, detected with luciferase, serves as a proxy for viable cell number.)

Structures are written as SMILES.

As for `COc1cc(C(=O)NC[C@@](O)(c2ccccc2)c2cc3c(c(-c4cc(Cl)c(F)cc4F)n2)OC[C@]3(C)C(N)=O)cc2cc(C)cnc12` [Example 80], the EC50 (commonly the concentration that produces a half-maximal response) in experiment [1] is under 500 nM; in experiment [2] it was under 200 nM.

`COc1cc(C(=O)NC[C@](O)(c2cc3c(c(-c4ccc(F)cc4O)n2)OC[C@]3(C)C(N)=O)C2CC2)cc2cn(C3CC3)nc12` [Example 63]: the EC50 was over 500 nM in experiment [1] and under 200 nM in experiment [2].

Regarding `COc1cc(C(=O)NC[C@](O)(c2cc3c(c(-c4cccc(SC(F)(F)F)c4)n2)OC[C@]3(C)C(N)=O)C2CC2)cc2cn(C3CC3)nc12` [Example 36], the EC50 in experiment [1] was over 500 nM; in experiment [2], under 200 nM.

`COc1cc(C(=O)NC[C@@](O)(c2ccccc2)c2cc3c(c(-c4ccc5c(c4Cl)OC(F)(F)O5)n2)OC[C@]3(C)C(N)=O)cc2cc(C3CC3)nn12` [Example 254]: the results for the EC50 in experiment [1] and in experiment [2] were under 500 nM and under 200 nM, respectively.

As for `CCNC(=O)[C@@]1(C)COc2c1cc([C@@](O)(CNC(=O)c1cc(OC)c3nn(C4CC4)cc3c1)c1ccccc1)nc2-c1cc(Cl)c(F)cc1F` [Example 142], the EC50 in experiment [1] is under 500 nM; in experiment [2], under 200 nM.

For `COc1cc(C(=O)NC[C@](O)(c2cc3c(c(-c4cc(Cl)c(F)cc4F)n2)OC[C@]3(C)C(N)=O)c2cc(C)cs2)cc2cn(C3CC3)nc12` [Example 467], the EC50 was under 500 nM in experiment [1] and under 200 nM in experiment [2].

With `[2H]C([2H])([2H])c1cc2cc(C(=O)NC[C@](O)(c3cc4c(c(-c5ccc(F)c(Cl)c5)n3)OC[C@]4(C)C(N)=O)C(F)(F)F)cc(OC)c2nc1C` [Example 20], the EC50 is over 500 nM in experiment [1] and under 200 nM in experiment [2].

Consider `COc1cc(C(=O)NC[C@@](O)(c2ccc(F)cc2)c2cc3c(c(-c4cc(Cl)c(F)cc4F)n2)OC[C@]3(C)C(N)=O)cc2cc(Cl)c(C)nc12` [Example 17], for which the results for the EC50 in experiment [1] and in experiment [2] were under 500 nM and under 200 nM, respectively.

Turning to `COc1cc(C(=O)NC[C@](O)(c2cc3c(c(-c4cc(Cl)cc(C)c4F)n2)OC[C@]3(C)C(N)=O)C2CC2)cc2cn(C3CC3)nc12` [Example 47], the EC50 is over 500 nM in experiment [1] and under 200 nM in experiment [2].

Turning to `C[C@]1(C(N)=O)COc2c1cc([C@@](O)(CNC(=O)c1cc(Cl)c3nn(C4CC4)cc3c1)C1CC1)nc2-c1ccc2c(c1Cl)OC(F)(F)O2` [Example 35], the EC50 in experiment [1] was under 500 nM; in experiment [2], under 200 nM.

As for `COc1cc(C(=O)NC[C@@](O)(c2ccccc2)c2cc3c(c(-c4cc(Cl)c(F)cc4F)n2)OC[C@]3(C)C(=O)NC2CC2)cc2cn(C3CC3)nc12` [Example 143], the EC50 in experiment [1] was under 500 nM; in experiment [2] it was under 200 nM.

`[2H]C([2H])([2H])c1nc2ccc(C(=O)NC[C@@](O)(c3ccccc3)c3cc4c(c(-c5cc(Cl)c(F)cc5F)n3)OC[C@]4(C)C(N)=O)cc2o1` [Example 87]: the EC50 is under 500 nM in experiment [1] and under 200 nM in experiment [2].

`COc1cc(C(=O)NC[C@](O)(c2cc3c(c(-c4cc(Cl)c(F)cc4F)n2)OC[C@]3(C)C(N)=O)c2ccccc2F)cc2cn(C3CC3)nc12` [Example 136]: the EC50 in experiment [1] is under 500 nM; in experiment [2], under 200 nM.

On to `COc1cc(C(=O)NC[C@@](O)(c2cc3c(c(-c4cc(F)c(F)c(F)c4Cl)n2)OC[C@]3(C)C(N)=O)C(F)(F)F)cc2cn(C3CC3)nc12` [Example 58], for which the concentration giving a half-maximal response (EC50) in experiment [1] was over 500 nM; in experiment [2] it was under 200 nM.

Regarding `COc1cc(C(=O)NC[C@](O)(c2cc3c(c(-c4cc(Cl)cc(Cl)c4Cl)n2)OC[C@]3(C)C(N)=O)C2CC2)cc2cn(C3CC3)nc12` [Example 61], the EC50 was under 500 nM in experiment [1] and under 200 nM in experiment [2].

With `COc1cc(C(=O)NC[C@@](O)(c2ccsc2)c2cc3c(c(-c4cc(F)c(F)cc4F)n2)OC[C@]3(C)C(N)=O)cc2cn(C(F)F)nc12` [Example 178], the EC50 in experiment [1] is under 500 nM; in experiment [2] it was under 200 nM.

In the case of `CNC(=O)[C@@]1(C)COc2c1cc([C@@](O)(CNC(=O)c1cc(OC)c3nn(C4CC4)cc3c1)c1ccccc1)nc2-c1cc(Cl)c(F)cc1F` [Example 141], the EC50 is under 500 nM in experiment [1] and under 200 nM in experiment [2].

Take `COc1cc(C(=O)NC[C@@](O)(c2ccccc2)c2cc3c(c(-c4cc(Cl)c(F)cc4F)n2)OC[C@]3(C)C(N)=O)cc2cn(C(F)F)nc12` [Example 156]: the values for the EC50 in experiment [1] and in experiment [2] were under 500 nM and under 200 nM, respectively.

Take `COc1cc(C(=O)NC[C@@](O)(c2cccc(F)c2)c2cc3c(c(-c4cc(Cl)c(F)cc4F)n2)OC[C@]3(C)C(N)=O)cc2cn(C(F)F)nc12` [Example 134]: the results for the EC50 in experiment [1] and in experiment [2] were under 500 nM and under 200 nM, respectively.

In the case of `COc1cc(C(=O)NC[C@@](O)(c2ccccc2)c2cc3c(c(-c4ccc5c(c4Cl)OC(F)(F)O5)n2)OC[C@]3(C)C(N)=O)cc2cn(C(F)F)nc12` [Example 253], the figures for the EC50 in experiment [1] and in experiment [2] were under 500 nM and under 200 nM, respectively.

In the case of `[2H]C([2H])([2H])c1nc2c(OC)cc(C(=O)NC[C@@](O)(c3ccccc3)c3cc4c(c(-c5ccc6c(c5)OC(F)(F)O6)n3)OC[C@]4(C)C(N)=O)cc2s1` [Example 9], the EC50 was under 500 nM in experiment [1] and under 200 nM in experiment [2].

For `[2H]C([2H])([2H])c1cc2cc(C(=O)NC[C@](O)(c3cc4c(c(-c5cc(Cl)c(F)cc5F)n3)OC[C@]4(C)C(N)=O)C3CC3)cc(OC)c2nc1C([2H])([2H])[2H]` [Example 29], the EC50 was under 500 nM in experiment [1] and under 200 nM in experiment [2].

Take `COc1cc(C(=O)NC[C@](O)(c2cc3c(c(-c4cc(Cl)c(F)cc4F)n2)OC[C@]3(C)C(N)=O)C2CC2)cc2cc(C(F)(F)F)cnc12` [Example 1]: the figures for the EC50 in experiment [1] and in experiment [2] were over 500 nM and under 200 nM, respectively.

As to `COc1cc(C(=O)NC[C@@](O)(c2cccc(F)c2)c2cc3c(c(-c4ccc(F)c(Cl)c4Cl)n2)OC[C@]3(C)C(N)=O)cc2oc(C)nc12` [Example 279], the figures for the EC50 in experiment [1] and in experiment [2] were under 500 nM and under 200 nM, respectively.

With `COc1cc(C(=O)NC[C@](O)(c2cc3c(c(-c4ccc(F)c(CO)c4F)n2)OC[C@]3(C)C(N)=O)C2CC2)cc2cn(C3CC3)nc12` [Example 72], the EC50 in experiment [1] is over 500 nM; in experiment [2] it was under 200 nM.

`COc1cc(C(=O)NC[C@](O)(c2cc3c(c(-c4cc(Cl)c(Cl)cc4Cl)n2)OC[C@]3(C)C(N)=O)C2CC2)cc2cn(C3CC3)nc12` [Example 62]: the EC50 in experiment [1] was over 500 nM; in experiment [2], under 200 nM.

With `COc1cc(C(=O)NC[C@@](O)(c2cc3c(c(-c4ccc(F)cc4O)n2)OC[C@]3(C)C(N)=O)C2CC2)cc2cn(C3CC3)nc12` [Example 64], the EC50 in experiment [1] was over 500 nM; in experiment [2] it was under 200 nM.

Turning to `COc1ccc([C@](O)(CNC(=O)c2cc(OC)c3nn(C(F)F)cc3c2)c2cc3c(c(-c4cc(Cl)c(F)cc4F)n2)OC[C@]3(C)C(N)=O)cc1` [Example 167], the 50% effective concentration (EC50) in experiment [1] is under 500 nM; in experiment [2] it was under 200 nM.

With `Cc1nc2ccc(C(=O)NC[C@@](O)(c3ccccc3)c3cc4c(c(-c5cc(Cl)c(F)cc5F)n3)OC[C@]4(C)C(N)=O)cc2o1` [Example 86], the values for the EC50 in experiment [1] and in experiment [2] were under 500 nM and under 200 nM, respectively.

Turning to `COc1cc(C(=O)NC[C@](O)(c2cc3c(c(-c4ccc5c(c4Cl)OC(F)(F)O5)n2)OC[C@]3(C)C(N)=O)C(F)(F)F)cc2cn(C3CC3)nc12` [Example 52], the values for the EC50 in experiment [1] and in experiment [2] were over 500 nM and under 200 nM, respectively.

`COc1cc(C(=O)NC[C@@](O)(c2cccc(F)c2)c2cc3c(c(-c4ccc5c(c4Cl)OC(F)(F)O5)n2)OC[C@]3(C)C(N)=O)cc2cn(C3CC3)nc12` [Example 274]: the EC50 in experiment [1] was under 500 nM; in experiment [2] it was under 200 nM.

Consider `Cc1nc2ccc(C(=O)NC[C@@](O)(c3cccc(F)c3)c3cc4c(c(-c5ccc(F)c(Cl)c5Cl)n3)OC[C@]4(C)C(N)=O)cc2o1` [Example 283], for which the concentration giving a half-maximal response (EC50) was under 500 nM in experiment [1] and under 200 nM in experiment [2].
